Assay results: publication PMC2888031 (Bioorganic & medicinal chemistry, 2009)
“Also recorded” adds a separate entry of the source.

Tests used:
S. aureus = S. aureus culture growth in the presence of 500 µM inhibitor; type: cell-based, Staphylococcus aureus; details: vs control cultures in 2.5% DMSO (Fig. 4)
[1] = target: Bacillus anthracis sortase enzyme (BaSrtA) (Bacillus anthracis, UniProt P0DPQ5); assay: biochemical
Sequence of Bacillus anthracis sortase enzyme (BaSrtA) (P0DPQ5 57-210 limits assumed): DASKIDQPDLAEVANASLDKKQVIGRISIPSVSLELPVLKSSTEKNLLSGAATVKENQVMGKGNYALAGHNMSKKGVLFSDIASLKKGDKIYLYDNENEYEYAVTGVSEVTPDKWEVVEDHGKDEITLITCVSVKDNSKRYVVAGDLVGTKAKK

| SMILES | effect on S. aureus growth (S. aureus) | IC50 [1] [nM] |
| --- | --- | --- |
| Cc1ccc(N2C(=O)/C(=C/c3cc([N+](=O)[O-])cc(Br)c3O)SC2=S)c(C)c1 [Compound 1] | toxic |  |
| CCSc1c(S)cnn(-c2ccccc2)c1=O [2–9] | do not significantly inhibit S. aureus growth; also recorded: not bactericidal; also recorded: do not impair microbial growth in cell culture |  |
| CCOc1cnn(-c2cccc(C)c2)c(=O)c1S [2–20] | do not significantly inhibit S. aureus growth; also recorded: not bactericidal |  |
| CC1=NN(c2ccccc2)C(=S)/C1=C/Nc1ccc(Br)cc1 [Compound 3-1] | do not substantially affect bacterial growth |  |
| COc1c(S)cnn(-c2cccc(Cl)c2)c1=O [Compound 2] | only modestly perturb growth |  |
| CC1=NN(c2ccccc2)C(=S)/C1=C/Nc1ccc(/N=N/c2ccccc2)cc1 [3–9] | do not substantially affect bacterial growth; also recorded: non-bacteriocidal |  |
| CC1=NN(c2ccccc2)C(=S)/C1=C/Nc1ccc([N+](=O)[O-])cc1 [Compound 3] | only modestly perturb growth |  |
| CC1=NN(c2ccccc2)C(=S)/C1=C/Nc1ccccn1 [3–17] | do not substantially affect bacterial growth |  |
| CC1=NN(c2ccccc2)C(=S)/C1=C/Nc1c(Br)cc(Br)cc1Br [3–12] | do not substantially affect bacterial growth; also recorded: no detrimental effect to bacterial viability; also recorded: non-bacteriocidal; also recorded: do not impair microbial growth in cell culture | 1700 ± 200 |
